According to US20100137266A1, “TREATMENT OF INSULIN RESISTANCE AND DISORDERS ASSOCIATED THEREWITH” (UNIVERSITETET I OSLO, priority 2006, published 2010):

Test: Stability in bovine plasma
Assay type: in vitro ADME
Conditions: 300 μM in citrated bovine plasma, 37° C., 24 h; HPLC detection at 210 nm
Protocol: A stock solution of 22(S)-hydroxycholesterol diglutarate was prepared by adding 50 mg of the compound to a 50 ml volumetric flask, followed by 0.5 ml DMSO and deionised water to 50 ml, giving a final concentration of 1.0 mg/ml. The plasma solution was prepared by adding 0.38 ml of the 22(S)-hydroxycholesterol diglutarate stock solution to 1.62 ml of citrated bovine plasma, giving a final concentration of 300 μM. The citrated bovine plasma was incubated at 37° C. for 24 h. Proteins were discarded from the samples by centrifugal filtration before 50 μl volume of the filtrate was injected with an autosampler onto an analytical column (C18 reverse phase system) The mobile phase consisted of a gradient composed of water and acetonitrile (20→50% from 0 to 10 min, the mobile phase increased from 0.5 ml/min→1.0 ml/min in 10 minutes). Eluted compounds were detected at 210 nm.

**Q.** For `CC(C)CCC(OC(=O)CCCC(=O)O)[C@@H](C)C1CCC2C3CC=C4CC(OC(=O)CCCC(=O)O)CCC4(C)C3CCC21C` (stereo partly drawn) [22(S)-hydroxycholesterol diglutarate, 22(S)-Hydroxycholesterol Diglutarate], which “detection of compound after incubation in plasma” value is on record?
**A.** not possible to detect
